≈ marks a conversion by molar mass, not a printed value. Like-named read-outs stand apart in the source and are kept apart here. Positions of bridges follow the written chain, without caps; N, C: chain ends. Non-standard residues stand in square brackets, D forms with d. Residues, ends and D or L forms follow the SMILES beside them. *: point of attachment. Phenylacetyl(4-CF3) = O=C(Cc1ccc(C(F)(F)F)cc1)*; Benzoyl(3,5-Cl2) = O=C(c1cc(Cl)cc(Cl)c1)*; Benzoyl(3-CF3) = O=C(c1cccc(C(F)(F)F)c1)*; X22 = CC(C)c1ccc(C(=O)*)cc1; Dab = NCC[C@H](N)C(=O)O; Abu = CC[C@H](N)C(=O)O; Dap = NC[C@H](N)C(=O)O
Assays:
Acinetobacter baumannii = tested on: Acinetobacter baumannii
Procedure, shortened: (§1)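 Using polymyxin B sulphate as comparator control, the trifluoroacetate-salt lipopeptides were assayed in CAMHB by broth microdilution to CLSI M100-S18, and MICs recorded.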

Enterobacter cloacae = tested on: Enterobacter cloacae
Procedure, shortened: as §1

Klebsiella pneumoniae = tested on: Klebsiella pneumoniae
Procedure, shortened: as §1

Pseudomonas aeruginosa = tested on: Pseudomonas aeruginosa
Procedure, shortened: as §1

P. aeruginosa ATCC 27853 = assay: In vivo efficacy in mouse blood infection model (neutropenic Swiss mice); conditions: compound, free base 4 mg/kg intravenously 2 h after inoculation, blood at 4 h
Procedure, shortened: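 Activity expressed as Δlog10 CFU/mL blood, treated minus saline control, 4 h after a single 4 mg/kg (free base) i.v. dose given 2 h post-infection. Bloodstream infection from i.v. early log-phase inoculum in Swiss mice made neutropenic by i.p. cyclophosphamide on days −4 (150 mg/kg) and −1 (100 mg/kg).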

SMILES: C[C@@H](O)[C@@H]1NC(=O)[C@H](CCN)NC(=O)[C@H](CCN)NC(=O)[C@H]([C@@H](C)O)NC(=O)[C@@H](Cc2ccccc2)NC(=O)[C@H](CCN)NC(=O)[C@@H](NC(=O)[C@H](CN)NC(=O)[C@@H](NC(=O)[C@H](CCN)NC(=O)c2cccc(C(F)(F)F)c2)[C@@H](C)O)CCNC1=O [Compound 124] ({Benzoyl(3-CF3)}-[Dab]T[Dap][Dab][Dab][dF]T[Dab][Dab]T; lactam 4-C)
- MIC (Acinetobacter baumannii): 1 µg/mL (≈ 0.827 µM)
- Minimum inhibitory concentration, Ab A ATCC 17978 (Acinetobacter baumannii): 1 µg/mL (≈ 0.827 µM)
- Minimum inhibitory concentration, Ab ATCC 19606 (Acinetobacter baumannii): 1 µg/mL (≈ 0.827 µM)
- Minimum inhibitory concentration, Ab FADDI-AB034 (Acinetobacter baumannii): 0.25 µg/mL (≈ 0.207 µM)
- Minimum inhibitory concentration, Ec FADDI-EC001 (Enterobacter cloacae): 0.5 µg/mL (≈ 0.413 µM)
- Minimum inhibitory concentration, Ec FADDI-EC003 (Enterobacter cloacae): <0.125 µg/mL
- Minimum inhibitory concentration, Ec FADDI-EC006 (Enterobacter cloacae): 0.5 µg/mL (≈ 0.413 µM)
- MIC (Klebsiella pneumoniae): 0.25 µg/mL (≈ 0.207 µM)
- MIC (Pseudomonas aeruginosa): 0.25 µg/mL (≈ 0.207 µM)
- Minimum inhibitory concentration, Pa ATCC 27853 (Pseudomonas aeruginosa): 0.25 µg/mL (≈ 0.207 µM)
- Minimum inhibitory concentration, Pa FADDI-PA022 (Pseudomonas aeruginosa): 0.5 µg/mL (≈ 0.413 µM)
- Minimum inhibitory concentration, Pa FADDI-PA025 (Pseudomonas aeruginosa): 2 µg/mL (≈ 1.65 µM)
- Δ log (Treated-Control at 4 h) (P. aeruginosa ATCC 27853): −3.36 log10 CFU/mL

SMILES: CC(C)C[C@H]1NC(=O)[C@H](CCN)NC(=O)[C@@H](NC(=O)[C@H](CN)NC(=O)[C@@H](NC(=O)[C@H](CCN)NC(=O)c2cc(Cl)cc(Cl)c2)[C@@H](C)O)CCNC(=O)[C@H]([C@@H](C)O)NC(=O)[C@H](CCN)NC(=O)[C@H](CCN)NC(=O)[C@H](C)NC1=O [Compound 117] ({Benzoyl(3,5-Cl2)}-[Dab]T[Dap][Dab][Dab][dL]A[Dab][Dab]T; lactam 4-C)
- MIC (Acinetobacter baumannii; A. baumannii ATCC 19606): 1 µg/mL (≈ 0.872 µM)
- Minimum inhibitory concentration, Ab A ATCC 17978 (Acinetobacter baumannii; Acinetobacter baumannii ATCC 17978, broth microdilution in CAMHB): 0.25 µg/mL (≈ 0.218 µM)
- Minimum inhibitory concentration, Ab ATCC 19606 (Acinetobacter baumannii; Acinetobacter baumannii ATCC 19606, broth microdilution in CAMHB): 1 µg/mL (≈ 0.872 µM)
- Minimum inhibitory concentration, Ab FADDI-AB034 (Acinetobacter baumannii; Acinetobacter baumannii FADDI-AB034, broth microdilution in CAMHB): 1 µg/mL (≈ 0.872 µM)
- Minimum inhibitory concentration, Ec FADDI-EC001 (Enterobacter cloacae; Enterobacter cloacae FADDI-EC001, broth microdilution in CAMHB): 0.25 µg/mL (≈ 0.218 µM)
- Minimum inhibitory concentration, Ec FADDI-EC003 (Enterobacter cloacae; Enterobacter cloacae FADDI-EC003, broth microdilution in CAMHB): 0.25 µg/mL (≈ 0.218 µM)
- Minimum inhibitory concentration, Ec FADDI-EC006 (Enterobacter cloacae; Enterobacter cloacae FADDI-EC006, broth microdilution in CAMHB): 1 µg/mL (≈ 0.872 µM)
- MIC (Klebsiella pneumoniae; K. pneumoniae FADDI-KP032): 0.25 µg/mL (≈ 0.218 µM)
- MIC (Pseudomonas aeruginosa; P. aeruginosa ATCC 27853): 0.25 µg/mL (≈ 0.218 µM)
- Minimum inhibitory concentration, Pa ATCC 27853 (Pseudomonas aeruginosa; Pseudomonas aeruginosa ATCC 27853, broth microdilution in CAMHB): 0.25 µg/mL (≈ 0.218 µM)
- Minimum inhibitory concentration, Pa FADDI-PA022 (Pseudomonas aeruginosa; Pseudomonas aeruginosa FADDI-PA022, broth microdilution in CAMHB): 2 µg/mL (≈ 1.74 µM)
- Minimum inhibitory concentration, Pa FADDI-PA025 (Pseudomonas aeruginosa; Pseudomonas aeruginosa FADDI-PA025, broth microdilution in CAMHB): 2 µg/mL (≈ 1.74 µM)
- Δ log (Treated-Control at 4 h) (P. aeruginosa ATCC 27853): −2.99 log10 CFU/mL

SMILES: CC[C@@H]1NC(=O)[C@@H](CC(C)C)NC(=O)[C@H](CCN)NC(=O)[C@@H](NC(=O)[C@H](CN)NC(=O)[C@@H](NC(=O)[C@H](CCN)NC(=O)c2ccc(C(C)C)cc2)[C@@H](C)O)CCNC(=O)[C@H]([C@@H](C)O)NC(=O)[C@H](CCN)NC(=O)[C@H](CCN)NC1=O [Compound 99] (X22-[Dab]T[Dap][Dab][Dab][dL][Abu][Dab][Dab]T; lactam 4-C)
- MIC (Acinetobacter baumannii): 1 µg/mL (≈ 0.882 µM)
- Minimum inhibitory concentration, Ab A ATCC 17978 (Acinetobacter baumannii): 0.25 µg/mL (≈ 0.221 µM)
- Minimum inhibitory concentration, Ab ATCC 19606 (Acinetobacter baumannii): 1 µg/mL (≈ 0.882 µM)
- Minimum inhibitory concentration, Ab FADDI-AB034 (Acinetobacter baumannii): 0.25 µg/mL (≈ 0.221 µM)
- Minimum inhibitory concentration, Ec FADDI-EC001 (Enterobacter cloacae): 0.25 µg/mL (≈ 0.221 µM)
- Minimum inhibitory concentration, Ec FADDI-EC003 (Enterobacter cloacae): 0.25 µg/mL (≈ 0.221 µM)
- Minimum inhibitory concentration, Ec FADDI-EC006 (Enterobacter cloacae): 0.5 µg/mL (≈ 0.441 µM)
- MIC (Klebsiella pneumoniae): 0.5 µg/mL (≈ 0.441 µM)
- MIC (Pseudomonas aeruginosa): 1 µg/mL (≈ 0.882 µM)
- Minimum inhibitory concentration, Pa ATCC 27853 (Pseudomonas aeruginosa): 1 µg/mL (≈ 0.882 µM)
- Minimum inhibitory concentration, Pa FADDI-PA022 (Pseudomonas aeruginosa): 0.5 µg/mL (≈ 0.441 µM)
- Minimum inhibitory concentration, Pa FADDI-PA025 (Pseudomonas aeruginosa): 2 µg/mL (≈ 1.76 µM)
- Δ log (Treated-Control at 4 h) (P. aeruginosa ATCC 27853): −3.21 log10 CFU/mL

SMILES: CC[C@@H]1NC(=O)[C@@H](CC(C)C)NC(=O)[C@H](CCN)NC(=O)[C@@H](NC(=O)[C@H](CN)NC(=O)[C@@H](NC(=O)[C@H](CCN)NC(=O)Cc2ccc(C(F)(F)F)cc2)[C@@H](C)O)CCNC(=O)[C@H]([C@@H](C)O)NC(=O)[C@H](CCN)NC(=O)[C@H](CCN)NC1=O [Compound 127] ({Phenylacetyl(4-CF3)}-[Dab]T[Dap][Dab][Dab][dL][Abu][Dab][Dab]T; lactam 4-C)
- MIC (Acinetobacter baumannii): 4 µg/mL (≈ 3.41 µM)
- Minimum inhibitory concentration, Ab A ATCC 17978 (Acinetobacter baumannii): 1 µg/mL (≈ 0.852 µM)
- Minimum inhibitory concentration, Ab ATCC 19606 (Acinetobacter baumannii): 4 µg/mL (≈ 3.41 µM)
- Minimum inhibitory concentration, Ab FADDI-AB034 (Acinetobacter baumannii): 0.5 µg/mL (≈ 0.426 µM)
- Minimum inhibitory concentration, Ec FADDI-EC001 (Enterobacter cloacae): <0.125 µg/mL
- Minimum inhibitory concentration, Ec FADDI-EC003 (Enterobacter cloacae): 0.25 µg/mL (≈ 0.213 µM)
- Minimum inhibitory concentration, Ec FADDI-EC006 (Enterobacter cloacae): 0.5 µg/mL (≈ 0.426 µM)
- MIC (Klebsiella pneumoniae): 0.5 µg/mL (≈ 0.426 µM)
- MIC (Pseudomonas aeruginosa): 0.5 µg/mL (≈ 0.426 µM)
- Minimum inhibitory concentration, Pa ATCC 27853 (Pseudomonas aeruginosa): 0.5 µg/mL (≈ 0.426 µM)
- Minimum inhibitory concentration, Pa FADDI-PA022 (Pseudomonas aeruginosa): 0.5 µg/mL (≈ 0.426 µM)
- Minimum inhibitory concentration, Pa FADDI-PA025 (Pseudomonas aeruginosa): 16 µg/mL (≈ 13.6 µM)
- Δ log (Treated-Control at 4 h) (P. aeruginosa ATCC 27853): −3.51 log10 CFU/mL

— patent USRE48335E1, “Polymyxin derivatives as antimicrobial compounds” (priority 2014, dated 2020)
